Measured values from patent US20100130452A1, “Use of Doxycycline in the Treatment of Idiopathic Pulmonary Fibrosis” (NATIONAL RESEARCH DEVELOPMENT CORPORATION, priority 2007, published 2010).

Legend:
[1] = system: patients (periodontal disease, malaria prevention, Pulmonary Capillary Hemangiomatosis, Q fever endocarditis); details: in vivo; cited from earlier work
IPF patients = details: cited from earlier work
suspected IPF patients = details: human, in vivo
[2] = system: Idiopathic Pulmonary Fibrosis patients; test: Response to treatment with only doxycycline (case reports); assay type: in vivo, human
Description: Example 1 Response to Treatment with Only Doxycycline […]

[3] = Case 2, 01 Oct. 2007 (earlier date, baseline)
[4] = Case 2, 09 Jan. 2008, on doxycycline 100 mg twice a day for over 3 months
[5] = Case 4, 10 Jan. 2004 (earlier date, baseline)
[6] = Case 4, 20 Aug. 2004, after doxycycline for over 7 months

doxycycline hyclate [doxycycline hyclate (Periostat)]
Safety in clinical studies [1]: safe

COc1cc2c(c(OC)c1OC)-c1ccc(OC)c(=O)cc1[C@@H](NC(C)=O)CC2 [colchicines]
Benefit of antifibrotic therapy in IPF (IPF patients; in vivo): did not show any significant benefit

C[C@H]1c2cccc(O)c2C(=O)C2=C(O)[C@]3(O)C(=O)C(C(N)=O)=C(O)[C@@H](N(C)C)[C@@H]3[C@@H](O)[C@@H]21 [doxycycline]
Intolerance or adverse reaction (suspected IPF patients): no intolerance or adverse reaction
Tolerability (suspected IPF patients): well tolerated
6 minute Walking distance [2, 3]: 980 ft
FVC [2, 3]: 1.66 L
6 minute Walking distance [2, 4]: 1155 ft
FVC [2, 4]: 1.92 L
FEV1 [2, 5]: 1.15
FVC [2, 5]: 2.12
TLCO(%) [2, 5]: 49.4%
TLCO/VA [2, 5]: 102.6
VA [2, 5]: 3.76
FVC ([2]; Case 4, 20 Aug. 2004, after doxycycline 100 mg twice a day for over 7 months): 2.45
FEV1 [2, 6]: 1.51
TLCO(%) [2, 6]: 58.9%
TLCO/VA [2, 6]: 127.9
VA [2, 6]: 3.59
Harm in long-term use (ACMP conclusion) [1]: no evidence of harm
Tolerability in Pulmonary Capillary Hemangiomatosis with atypical endotheliomatosis [1]: without any problem

Cc1ccc(=O)n(-c2ccccc2)c1 [Pirfinidone]
Tolerability (IPF patients; in vivo): well tolerated

CC(C)(S)[C@@H](N)C(=O)O [D-penicillamine]
Benefit of antifibrotic therapy in IPF (IPF patients; in vivo): did not show any significant benefit

B1: Interferon gamma-1b: a down regulator to TGFβ (protein, UniProt P01579 24-161, looked up)
Interferon gamma: QDPYVKEAENLKKYFNAGHSDVADNGTLFLGILKNWKEESDRKIMQSQIVSFYFKLFKNFKDDQSIQKSVETIKEDMNVKFFNSNKKKRDDFEKLTNYSVTDLNVQRKAIHELIQVMAELSPAAKTGKRKRSQMLFRG
Lung volume, gas exchange and symptoms (IPF patients; one year study): increase
Efficacy in IPF (IPF patients; recent double blind controlled trial): ruled out its efficacy
